Results taken from patent US20100184759A1, “PYRANO-PYRAZOLE-AMINES” (priority 2007, published 2010).

What was measured:
σ2-receptor = molecular target: T1, σ2-receptor (Rattus norvegicus, UniProt Q5U3Y7); assay: Sigma 2 (Version B) receptor binding, [3H]-ditolylguanidine, rat liver preparation; conditions: for Ki: radioligand [3H]-ditolylguanidine 3 nM, σ1 sites masked with (+)-pentazocine; for inhibition at 1 µM: compound at 1 μM, value in square brackets
T1 construct: the σ2-Receptorpreparation was prepared from rat liver; from tissue; host or cells: rat liver membrane homogenate
T1 sequence (Q5U3Y7 1-176): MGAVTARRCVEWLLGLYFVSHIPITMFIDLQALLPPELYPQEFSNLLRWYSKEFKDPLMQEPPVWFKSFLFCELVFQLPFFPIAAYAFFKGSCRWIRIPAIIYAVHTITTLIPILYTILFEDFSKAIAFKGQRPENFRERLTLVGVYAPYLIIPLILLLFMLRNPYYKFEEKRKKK
Protocol: In brief the σ2-Receptorpreparation was prepared from rat liver. The livers were homogenized in 5 to 6 times of volume sucrose solution (0.32M) and homogenized. The homogenate was centrifuged at 2900 rpm, 4° C., 10 min). the supernatant was centrifuged again (31000×g, 4° C., 20 min). The pellet was resuspended in TRIS-buffer, incubated for 30 min at room temperature while stirring and centrifuged f (31000×g, 4° C., 20 min). The pellet was resuspended in cold TRIS-buffer pH 8 and homogenized. Then the protein content was measured (approx. 2 mg/mL) and the homogenate frozen at −80° C. for later use.
The radioligand used was [^3H]-Ditolylguanidin in TRIS-buffer pH 8. The σ1-receptor binding sites were masked through (+)-Pentazocin-solution in TRIS-Puffer pH 8.
In a volume of 200 μL 50 μL compound solution of varying concentration, 50 μL (+)-Pentazocin-solution (2 nM; resulting in 500 nM in the assay), 50 μL radioligand-solution (12 nM; resulting in 3 nM in the assay) and finally 50 μL of receptor preparation (approx. 2 mg/mL) were given into a well of a microplate equipped with a filter. The plate was closed and stirred for 2 h at room temperature and 500 rpm. Following that the solvents were removed by a harvester through the filter. After rinsing with H2O the filter was measured in a scintillation counter ([^3H]-protocol).

σ1-receptor = molecular target: T2, σ1-receptor (Cavia porcellus, UniProt Q60492); assay: Sigma 1 (Version B) receptor binding, [3H]-(+)-pentazocine, guinea pig brain preparation; conditions: radioligand [3H]-(+)-pentazocine 2 nM
T2 construct: the σ1-receptor preparation was prepared from guinea pig brain; from tissue; host or cells: guinea pig brain membrane homogenate
T2 sequence (Q60492 whole entry): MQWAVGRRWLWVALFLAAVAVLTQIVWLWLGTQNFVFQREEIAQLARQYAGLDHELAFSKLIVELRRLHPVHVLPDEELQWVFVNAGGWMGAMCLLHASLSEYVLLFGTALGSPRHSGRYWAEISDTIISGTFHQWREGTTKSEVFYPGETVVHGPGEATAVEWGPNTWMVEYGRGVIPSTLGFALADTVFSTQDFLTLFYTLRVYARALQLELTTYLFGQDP
Protocol: In brief the σ1-receptor preparation was prepared from guinea pig brain. The brains were homogenized in 5 to 6 times of volume sucrose solution (0.32M) and homogenized. The homogenate was centrifuged at 2900 rpm, 4° C., 10 min). the supernatant was centrifuged again (23500×g, 4° C., 20 min). The pellet was resuspended in Tris-buffer, incubated for 30 min at room temperature and centrifuged f (23500×g, 4° C., 20 min). The pellet was resuspended in cold TRIS-buffer and homogenized. Then the protein content was measured (approx. 1.5 mg/mL) and the homogenate frozen at −80° C. for later use.
The radioligand used was [^3H]-(+)-Pentazocin in TRIS-buffer. In a volume of 200 μL 50 μL TRIS-buffer, 50 μL compound solution of varying concentration, 50 μL radioligand-solution (8 nM; resulting in 2 nM in the assay) and finally 50 μL of receptor preparation (approx. 1.5 mg/mL) were given into a well of a microplate equipped with a filter. The plate was closed and stirred for 2.5 h at 37° C. and 500 rpm. Following that the solvents were removed by a harvester through the filter. After rinsing with H2O the filter was measured in a scintillation counter ([^3H]-protocol).

Compound | Ki (σ2-receptor) [µM] | melting point [°C] | Ki (σ1-receptor) [µM] | inhibition at 1 µM (σ2-receptor) [%]
c1ccc(-n2ncc3c2CCOC3CN2CCCCC2)cc1 (stereo not shown) [Example 1, 1-Phenyl-4-(piperidin-1-ylmethyl)-1,4,6,7-tetrahydro-pyrano[4,3-c]pyrazole] | 0.453 | 91 | 0.0105 ± 0.00116 | 
c1ccc(C2CCN(CC3OCCc4c3cnn4-c3ccccc3)CC2)cc1 (stereo not shown) [Example 2, 1-Phenyl-4-(4-phenylpiperidin-1-ylmethyl)-1,4,6,7-tetrahydropyrano[4,3-c]pyrazole] | 0.0083 ± 0.00266 |  | 0.0016 ± 0.00041 | 
c1ccc(-n2ncc3c2CCOC3CN2CCOCC2)cc1 (stereo not shown) [Example 3, 4-(Morpholin-4-ylmethyl)-1-phenyl-1,4,6,7-tetrahydro-pyrano[4,3-c]pyrazole] |  | 115 | 0.169 ± 0.0396 | 5
c1ccc(N2CCN(CC3OCCc4c3cnn4-c3ccccc3)CC2)cc1 (stereo not shown) [Example 4, 1-Phenyl-4-(4-phenylpiperazin-1-ylmethyl)-1,4,6,7-tetrahydropyrano[4,3-c]pyrazole] | 0.21 ± 0.0542 | 151 | 0.0423 ± 0.00332 | 
CN1CCN(CC2OCCc3c2cnn3-c2ccccc2)CC1 (stereo not shown) [Example 5, 4-(4-Methylpiperazin-1-ylmethyl)-1-phenyl-1,4,6,7-tetrahydropyrano[4,3-c]pyrazole] |  | 66 | 0.219 ± 0.00722 | 13
c1ccc(-n2ncc3c2CCOC3CN2CCCC2)cc1 (stereo not shown) [Example 6, 1-Phenyl-4-(pyrrolidin-1-ylmethyl)-1,4,6,7-tetrahydro-pyrano[4,3-c]pyrazole] | 0.322 | 89 | 0.0593 ± 0.0112 | 
CN(C)CC1OCCc2c1cnn2-c1ccccc1 (stereo not shown) [Example 7, N,N-Dimethyl-1-(1-phenyl-1,4,6,7-tetrahydropyrano[4,3-c]pyrazole-4-yl)methanamine] |  | 103 | 1.38 | 12
c1ccc(-n2ncc3c2CCOC3CCN2CCCCC2)cc1 (stereo not shown) [Example 8, 1-Phenyl-4-(2-piperidin-1-yl-ethyl)-1,4,6,7-tetrahydro-pyrano[4,3-c]pyrazole] | 0.536 |  | 0.00298 ± 0.00072 | 
c1ccc(C2CCN(CCC3OCCc4c3cnn4-c3ccccc3)CC2)cc1 (stereo not shown) [Example 9, 1-Phenyl-4-[2-(4-phenyl-piperidin-1-yl)-ethyl]-1,4,6,7-tetrahydro-pyrano[4,3-c]pyrazole] | 0.0151 ± 0.00298 |  | 0.000988 ± 7e-05 | 
c1ccc(N2CCN(CCC3OCCc4c3cnn4-c3ccccc3)CC2)cc1 (stereo not shown) [Example 11, 1-Phenyl-4-[2-(4-phenyl-piperazin-1-yl)-ethyl]-1,4,6,7-tetrahydro-pyrano[4,3-c]pyrazole] | 0.431 |  | 0.00294 ± 0.00043 | 
CN(C)CCC1OCCc2c1cnn2-c1ccccc1 (stereo not shown) [Example 14, Dimethyl-[2-(1-phenyl-1,4,6,7-tetrahydro-pyrano[4,3-c]pyrazol-4-yl)-ethyl]-amine] | 1.28 |  | 0.024 ± 0.002 | 
